Measurements taken from patent publication US12390447B2, “Sirtuin 6 protein deacylase (SIRT6) activators” (Wisconsin Alumni Research Foundation, priority 2019, dated 2025).

What was measured:
Assay type in all cases: biochemical
SIRT6 [1] = molecular target: T1, SIRT6 (Homo sapiens, UniProt Q8N6T7); test: Small molecule SIRT6 activator screen (H3K9ac peptide deacetylation, HPLC); settings: compound 100 μM; SIRT6 1 μM; H3K9ac peptide 20 μM; 0.5 mM NAD+
Procedure: Mastermix containing SIRT6, buffer, and H3K9ac peptide were distributed to wells using Microflex peristaltic dispenser (Beckman). Plates were spun and preheated to 37° C. before addition of NAD^+ using peristaltic dispenser. After 60 minutes reactions were quenched with 2% TFA final using peristaltic dispenser then sealed and spun again before in-house HPLC separation and quantification of substrate and product peptides. Reaction conditions were 1 μM SIRT6, 0.5 mM NAD^+, […] (4-16), 20 mM potassium phosphate pH 7.5, 10% DMSO, and either 10 or 100 μM compound determined by 10-fold dilution of stock library concentration.
All sirtuin deacylation assays were carried out at 37° C. in 20 mM potassium phosphate pH 7.5 with 0.5 mM NAD^+, 10% DMSO, and 20 μM H3K9ac or H3K9myr peptides, unless otherwise noted in legend, and quenched by the addition of 2% TFA final. Steady-state reactions were constrained to less than 20% substrate turnover to prevent product inhibition. A variety of times were required to monitor SIRT6 deacetylation (2-60 minutes) under this restraint given the ability to strongly activate catalysis. In these cases, specific activities were determined and either reported as is or as fold-activation of specific activity. […] Deacetylation reactions were analyzed using a gradient of 33-100% B (30% acetonitrile with 0.05% TFA) in 8 min at 1.6 mL min^−1. Demyristoylation reactions were analyzed using a gradient of 3 to 100% B (acetonitrile with 0.05% TFA) in 10 min at 1.6 mL min^−1. The product and substrate peaks were quantified and ratio of these allowed for quantification of product formation.

SIRT6 [2] = molecular target: T1, SIRT6; test: SIRT6 deacetylation of H3K9ac peptide, fold-activation versus activator concentration; settings: for EC50: H3K9ac peptide 20 μM, sigmoidal curve fit
Procedure: (1A) Compound libraries BML-2803, BML-2800, and an additional set of 178 molecules were screened at 100 μM for their ability to stimulate SIRT6 (1 μM) deacetylation of H3K9ac peptide (20 μM) in the presence of 0.5 mM NAD^+. SIRT6 activity was measured by HPLC quantification of H3K9ac and deacetylated product (inset) and fold activations relative to DMSO control were determined and compiled. (1B) Fold-activation of SIRT6 (1 μM) determined in the presence of either 0-400 μM CL4, 0-150 μM TTNPB, 0-100 μM Lysophosphatidic acid (LPA), or 0-200 μM linoleoylglycine (LGly). Maximum fold-activation and EC50 determined by sigmoidal curve fit. (1C) Steady-state kinetic analysis of SIRT6 (1 μM) deacetylation was conducted with 0-250 μM H3K9ac peptide in the presence of 100 μM CL4, 50 μM TTNPB, 50 μM LPA, or 50 μM LGly. Constants Km, H3K9ac and kcat were determined by fitting data to Michaelis-Menten equation. (1D) Fold-activations of SIRT1 (0.1 μM), SIRT2 (0.2 μM), SIRT3 (1 μM), SIRT5 (2 μM), and SIRT6 (1 μM) determined in the presence of CL4 (100 μM), TTNPB (50 μM), and LPA (50 μM) relative to DMSO control against 20 μM H3K9ac peptide and 0.5 mM NAD^+. Mean values reported with error bars representing standard deviation of at least three replicates.
All sirtuin deacylation assays were carried out at 37° C. in 20 mM potassium phosphate pH 7.5 with 0.5 mM NAD^+, 10% DMSO, and 20 μM H3K9ac or H3K9myr peptides, unless otherwise noted in legend, and quenched by the addition of 2% TFA final. Steady-state reactions were constrained to less than 20% substrate turnover to prevent product inhibition. A variety of times were required to monitor SIRT6 deacetylation (2-60 minutes) under this restraint given the ability to strongly activate catalysis. In these cases, specific activities were determined and either reported as is or as fold-activation of specific activity. Deacylation reactions were analyzed by reversed phase high-performance liquid chromatography on a Kinetex C18 column (100 Å, 100×4.6 mm, 2.6 μm, Phenomenex) by monitoring the formation of the deacylated product at 214 nm. Deacetylation reactions were analyzed using a gradient of 33-100% B (30% acetonitrile with 0.05% TFA) in 8 min at 1.6 mL min^−1. Demyristoylation reactions were analyzed using a gradient of 3 to 100% B (acetonitrile with 0.05% TFA) in 10 min at 1.6 mL min^−1. The product and substrate peaks were quantified and ratio of these allowed for quantification of product formation. […]

SIRT6 [3] = molecular target: T1, SIRT6; test: Histone deacetylation assay with acid extracted histones, H3K9ac immunoblot; settings: 50 μM compound; histones 75 μg/mL from SAHA-treated HEK293T cells; SIRT6 1 μM
Procedure: HEK293T cells were cultured in Dulbecco's Modified Eagle Medium supplemented with 10% fetal bovine serum. Cells were treated with 10 μM SAHA for 24 hours prior to harvest. Cells were trypsinized and pelleted prior to washing twice with ice-cold PBS. Cells were then resuspended in 800 μL ice-cold 10 mM HEPES pH 7.4, 10 mM KCl, 0.05% NP-40, and histone deacetylase and protease inhibitors (1 mM sodium butyrate, 4 μM trichostatin A, 100 μM phenylmethylsulfonyl fluoride, 10 μg/mL leupeptin, and 10 μg/mL aprotinin) for 20 minutes. After a 1,000×g 10 minute spin at 4° C. the pelleted nuclei were resuspended in 0.2 M HCl and incubated on ice for 20 minutes. Following 10 minute spin at 21,000×g at 4° C. the acid extracted supernatant was neutralized with 1 M Tris-HCl pH 8 prior to BCA protein concentration measurement. Histone deacetylation assays were ran with 75 μg/mL extracted histones, 1 μM SIRT6, 50 μM CL5, CL5D or 5% DMSO control, 0.5 mM NAD^+, in 20 mM potassium phosphate pH 7.5. Reactions ran at 37° C. prior to quench with SDS loading dye and 5 minute boil. 540 ng of nuclei acid extract following sirtuin reaction were loaded for 15% SDS-PAGE followed by transfer to nitrocellulose. Membrane was blocked with 1% milk before blotted with anti-H3K9ac (Active Motiff 39917) 1:3000 and imaged. […] Bands were quantified using Image Studio Lite (LiCor). […]

T1 sequence (Q8N6T7 whole entry): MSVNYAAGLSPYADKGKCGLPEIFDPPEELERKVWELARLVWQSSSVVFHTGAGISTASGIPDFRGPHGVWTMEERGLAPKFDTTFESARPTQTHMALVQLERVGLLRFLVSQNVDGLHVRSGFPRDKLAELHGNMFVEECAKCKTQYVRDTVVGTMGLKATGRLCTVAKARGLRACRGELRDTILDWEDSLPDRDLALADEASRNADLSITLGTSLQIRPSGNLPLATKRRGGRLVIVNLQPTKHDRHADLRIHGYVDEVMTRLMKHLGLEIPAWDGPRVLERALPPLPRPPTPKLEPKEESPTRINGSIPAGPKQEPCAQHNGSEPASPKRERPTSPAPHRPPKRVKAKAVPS

Molecule	F.A. (fold-activation of SIRT6 relative to DMSO control) (SIRT6 [1])	further results
CCCCCCCCCCCCCCC(F)C(=O)O (stereo not shown) [2-Fluoropalmitic acid]	25 fold	
CCCCC/C=C\C/C=C\C/C=C\C/C=C\CCCC(=O)O [Arachidonic acid (20:4 n-6)]	15 fold	
O=C(O)c1ccc2c(c1)C(=O)N(c1ccc(NC(=O)c3ccccc3)cc1)C2=O [CL-5, 2-(4-benzamidophenyl)-1,3-dioxoisoindoline-5-carboxylic acid]		concentration required to stimulate 4-fold activation of SIRT6 (SIRT6 [2]; SIRT6 1 μM, H3K9ac 20 μM, 0.5 mM NAD+): >400 µM; activation of SIRT6 (in words) (SIRT6 [2]; concentrations up to 400 μM): no activation; SIRT6 deacetylation at H3K9 of whole histone substrate (in words) (SIRT6 [3]): not
CCCCCCCC/C=C\CCCCCCCC(=O)OCC(O)COP(=O)(O)O (stereo not shown) [Lysophosphatidic acid, oleoyl-lysophosphatidic acid, reference compound]		EC50 (SIRT6 [2]; SIRT6 1 μM, 0.5 mM NAD+): 25 ± 1 µM
CCCCCCCC/C=C\C/C=C\C/C=C\CCCC(=O)O [Mead acid (20:3 n-9)]	16 fold	
C/C(=C\c1ccc(C(=O)O)cc1)c1ccc2c(c1)C(C)(C)CCC2(C)C [TTNPB, arotinoid acid, reference compound]		EC50 (SIRT6 [2]; SIRT6 1 μM, 0.5 mM NAD+): 53 ± 3 µM
CCCCCCCCCCCCCC(=O)O [myristic acid]	3.7 fold	
Eicosatrienoic acid (20:3 n-3)	17 fold	
